Measurements published in patent US9833497B2, “Human originated EGF domain proteins and use of the same” (CHENGDU SOURCEBIO LIMITED-LIABILITY COMPANY, priority 2013, dated 2017).

How the values were obtained:
Format in all cases: cell-based
Enterobacter cloacae = experiment: MIC against Gram-negative bacteria: Enterobacter cloacae; details: 5×10^5 CFU/mL
In short: (§1)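 MIC, the lowest recombinant protein concentration giving no bacterial growth, found by two-fold serial dilution of human EGF-domain proteins in triplicate. Inoculum 5×10^5 CFU/mL in LB from cultures at McFarland 0.5; plates incubated at 37° C, 175 rpm shaking.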

E. coli BL21 = experiment: MIC against Gram-negative bacteria: E. coli BL21; details: 5×10^5 CFU/mL
In short: as §1

E. coli DH5α = experiment: Antibacterial activity: MIC and growth curve against E. coli DH5α in 96-well plate; details: minimal inhibitory concentration against E. coli DH5α; 96-well plate, 5×10^5 CFU/mL, 37° C., judged after 8 h
In short: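 Log-phase bacteria (OD600 ~0.5) resuspended in LB at 5×10^5 CFU/mL, exposed to recombinant protein at 50, 25, 12.5 μg/mL final in triplicate, 37 °C shaking at 175 rpm. OD600 read every 30 min; MIC is lowest concentration showing no growth.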

Serratia marcescens = experiment: MIC against Gram-negative bacteria: Serratia marcescens; details: 5×10^5 CFU/mL
In short: as §1

Pseudomonas aeruginosa = experiment: MIC against Gram-negative bacteria: Pseudomonas aeruginosa; details: 5×10^5 CFU/mL
In short: as §1

Proteus mirabilis = experiment: MIC against Gram-negative bacteria: Proteus mirabilis; details: 5×10^5 CFU/mL
In short: as §1

Proteus vulgaris = experiment: MIC against Gram-negative bacteria: Proteus vulgaris; details: 5×10^5 CFU/mL
In short: as §1

Klebsiella pneumonia = experiment: MIC against Gram-negative bacteria: Klebsiella pneumonia; details: 5×10^5 CFU/mL
In short: as §1

Citrobacter diversus = experiment: MIC against Gram-negative bacteria: Citrobacter diversus; details: 5×10^5 CFU/mL
In short: as §1

Moraxella catarrhalis = experiment: MIC against Gram-negative bacteria: Moraxella catarrhalis; details: 5×10^5 CFU/mL
In short: as §1

Aeromonas hydrophila = experiment: MIC against Gram-negative bacteria: Aeromonas hydrophila; details: 5×10^5 CFU/mL
In short: as §1

[1] = Enterobacter cloacae, 96-well plate, 37° C., 10 h
[2] = E. coli BL21, 96-well plate, 37° C., 10 h
[3] = Serratia marcescens, 96-well plate, 37° C., 10 h
[4] = Pseudomonas aeruginosa, 96-well plate, 37° C., 10 h
[5] = Proteus mirabilis, 96-well plate, 37° C., 10 h
[6] = Proteus vulgaris, 96-well plate, 37° C., 10 h
[7] = Klebsiella pneumonia, 96-well plate, 37° C., 10 h
[8] = Citrobacter diversus, 96-well plate, 37° C., 10 h
[9] = Moraxella catarrhalis, 96-well plate, 37° C., 10 h
[10] = Aeromonas hydrophila, 96-well plate, 37° C., 10 h
[11] = 10 h cultivation at 37° C., two-fold serial dilution

Substance: PRT1294 (DFDDCQDNKCKNGAHCTDAVNGYTCICPEGYSGLFCE; listed as Homo sapiens)
- MIC against E. cloacae (Enterobacter cloacae; [1]): 50 µg/mL
- MIC against E. coli BL21 (E. coli BL21; [2]): 12.5 µg/mL
- MIC (E. coli DH5α): 50 µg/mL
- MIC against S. marcescens (Serratia marcescens; [3]): 50 µg/mL
- MIC against P. aeruginosa (Pseudomonas aeruginosa; [4]): 50 µg/mL
- MIC against P. mirabilis (Proteus mirabilis; [5]): 50 µg/mL
- MIC against P. vulgaris (Proteus vulgaris; [6]): 12.5 µg/mL
- MIC against K. pneumonia (Klebsiella pneumonia; [7]): 12.5 µg/mL
- MIC against C. diversus (Citrobacter diversus; [8]): 50 µg/mL
- MIC against M. catarrhalis (Moraxella catarrhalis; [9]): 12.5 µg/mL
- MIC against A. hydrophila (Aeromonas hydrophila; [10]): 12.5 µg/mL

Substance: PRT628 (CTCNQHGTCDPNTGICVCSHHTEGPSCERCLPGFYGNPFAGQADDCQP; listed as Homo sapiens)
- MIC E. cloacae (Enterobacter cloacae; 96-well plate, 37° C., 10 h): 25 µg/mL
- MIC E. coli BL21 (E. coli BL21; 96-well plate, 37° C., 10 h): 12.5 µg/mL
- MIC (E. coli DH5α): 12.5 µg/mL
- MIC S. marcescens (Serratia marcescens; 96-well plate, 37° C., 10 h): 25 µg/mL
- MIC P. aeruginosa (Pseudomonas aeruginosa; 96-well plate, 37° C., 10 h): 25 µg/mL
- MIC P. mirabilis (Proteus mirabilis; 96-well plate, 37° C., 10 h): 25 µg/mL
- MIC P. vulgaris (Proteus vulgaris; 96-well plate, 37° C., 10 h): 12.5 µg/mL
- MIC K. pneumonia (Klebsiella pneumonia; 96-well plate, 37° C., 10 h): 12.5 µg/mL
- MIC C. diversus (Citrobacter diversus; 96-well plate, 37° C., 10 h): 25 µg/mL
- MIC M. catarrhalis (Moraxella catarrhalis; 96-well plate, 37° C., 10 h): 12.5 µg/mL
- MIC A. hydrophila (Aeromonas hydrophila; 96-well plate, 37° C., 10 h): 12.5 µg/mL

Substance: PRT641 (QAEECGILNGCENGRCVRVQEGYTCDCFDGYHLDTAK; listed as Homo sapiens)
- MIC E. cloacae (Enterobacter cloacae; 96-well plate, 37° C., 10 h): 50 µg/mL
- MIC E. coli BL21 (E. coli BL21; 96-well plate, 37° C., 10 h): 25 µg/mL
- MIC (E. coli DH5α): 50 µg/mL
- MIC S. marcescens (Serratia marcescens; 96-well plate, 37° C., 10 h): 50 µg/mL
- MIC P. aeruginosa (Pseudomonas aeruginosa; 96-well plate, 37° C., 10 h): 12.5 µg/mL
- MIC P. mirabilis (Proteus mirabilis; 96-well plate, 37° C., 10 h): 50 µg/mL
- MIC P. vulgaris (Proteus vulgaris; 96-well plate, 37° C., 10 h): 12.5 µg/mL
- MIC K. pneumonia (Klebsiella pneumonia; 96-well plate, 37° C., 10 h): 25 µg/mL
- MIC C. diversus (Citrobacter diversus; 96-well plate, 37° C., 10 h): 12.5 µg/mL
- MIC M. catarrhalis (Moraxella catarrhalis; 96-well plate, 37° C., 10 h): 25 µg/mL
- MIC A. hydrophila (Aeromonas hydrophila; 96-well plate, 37° C., 10 h): 25 µg/mL

Substance: PRT640 (DMDECQDPSSCIDGQCVNTEGSYNCFCTHPMVLDASE; listed as Homo sapiens)
- MIC E. cloacae (Enterobacter cloacae; 96-well plate, 37° C., 10 h): 25 µg/mL
- MIC E. coli BL21 (E. coli BL21; 96-well plate, 37° C., 10 h): 25 µg/mL
- MIC (E. coli DH5α): 12.5 µg/mL
- MIC S. marcescens (Serratia marcescens; 96-well plate, 37° C., 10 h): 25 µg/mL
- MIC P. aeruginosa (Pseudomonas aeruginosa; 96-well plate, 37° C., 10 h): 50 µg/mL
- MIC P. mirabilis (Proteus mirabilis; 96-well plate, 37° C., 10 h): 50 µg/mL
- MIC P. vulgaris (Proteus vulgaris; 96-well plate, 37° C., 10 h): 12.5 µg/mL
- MIC K. pneumonia (Klebsiella pneumonia; 96-well plate, 37° C., 10 h): 12.5 µg/mL
- MIC C. diversus (Citrobacter diversus; 96-well plate, 37° C., 10 h): 12.5 µg/mL
- MIC M. catarrhalis (Moraxella catarrhalis; 96-well plate, 37° C., 10 h): 25 µg/mL
- MIC A. hydrophila (Aeromonas hydrophila; 96-well plate, 37° C., 10 h): 50 µg/mL

Substance: PRT60 (EVDECSRPNRGGCEQRCLNTLGSYKCSCDPGYELAPDKRRCE; listed as Homo sapiens)
- MIC (μg/mL) E. cloacae (Enterobacter cloacae; [1]): 12.5 µg/mL
- MIC (μg/mL) E. coli BL21 (E. coli BL21; [2]): 12.5 µg/mL
- MIC (E. coli DH5α): 12.5 µg/mL
- MIC (μg/mL) S. marcescens (Serratia marcescens; [3]): 50 µg/mL
- MIC (μg/mL) P. aeruginosa (Pseudomonas aeruginosa; [4]): 12.5 µg/mL
- MIC (μg/mL) P. mirabilis (Proteus mirabilis; [5]): 50 µg/mL
- MIC (μg/mL) P. vulgaris (Proteus vulgaris; [6]): 12.5 µg/mL
- MIC (μg/mL) K. pneumonia (Klebsiella pneumonia; [7]): 12.5 µg/mL
- MIC (μg/mL) C. diversus (Citrobacter diversus; [8]): 12.5 µg/mL
- MIC (μg/mL) M. catarrhalis (Moraxella catarrhalis; [9]): 25 µg/mL
- MIC (μg/mL) A. hydrophila (Aeromonas hydrophila; [10]): 12.5 µg/mL

Substance: PRT1047 (SNTCTCKNGGTCLPENGNCVCAPGFRGPSCQ; listed as Homo sapiens)
- MIC E. cloacae (Enterobacter cloacae; [11]): 25 µg/mL
- MIC E. coli BL21 (E. coli BL21; [11]): 50 µg/mL
- MIC (E. coli DH5α): 50 µg/mL
- MIC S. marcescens (Serratia marcescens; [11]): 12.5 µg/mL
- MIC P. aeruginosa (Pseudomonas aeruginosa; [11]): 25 µg/mL
- MIC P. mirabilis (Proteus mirabilis; [11]): 12.5 µg/mL
- MIC P. vulgaris (Proteus vulgaris; [11]): 12.5 µg/mL
- MIC K. pneumonia (Klebsiella pneumonia; [11]): 50 µg/mL
- MIC C. diversus (Citrobacter diversus; [11]): 50 µg/mL
- MIC M. catarrhalis (Moraxella catarrhalis; [11]): 12.5 µg/mL
- MIC A. hydrophila (Aeromonas hydrophila; [11]): 12.5 µg/mL
